Measured values taken from ChEMBL document CHEMBL3580664, “Synthesis and Pharmacology of α/β(3)-Peptides Based on the Melanocortin Agonist Ac-His-dPhe-Arg-Trp-NH2 Sequence” (ACS Med Chem Lett, 2015).
Square brackets hold non-standard residues; d marks the D form. Peptide text beside a SMILES is read from it.

How the values were obtained:
[1] = molecular target: Melanocyte-stimulating hormone receptor (Mus musculus) (UniProt Q01727); assay: Agonist activity at mouse MC1 receptor expressed in HEK-293 cells assessed as cAMP response measured at 100 uM after 2 hrs incubation by cAMP Alphascreen assay relative to control; type: functional, cell-based; details: HEK293
Sequence of Melanocyte-stimulating hormone receptor (Mus musculus) (Q01727 whole entry, looked up): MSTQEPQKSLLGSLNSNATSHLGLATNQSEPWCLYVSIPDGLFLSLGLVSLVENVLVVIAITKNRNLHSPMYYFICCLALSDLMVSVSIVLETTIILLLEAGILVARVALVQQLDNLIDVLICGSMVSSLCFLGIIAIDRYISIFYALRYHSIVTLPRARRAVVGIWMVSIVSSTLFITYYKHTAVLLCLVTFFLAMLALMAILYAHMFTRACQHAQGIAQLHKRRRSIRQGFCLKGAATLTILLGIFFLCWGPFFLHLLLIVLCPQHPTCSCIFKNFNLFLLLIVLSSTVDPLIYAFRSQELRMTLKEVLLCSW

Melanocortin receptor 4 = Melanocortin receptor 4 (Mus musculus, UniProt P56450); assay: Agonist activity at mouse MC4 receptor expressed in HEK-293 cells assessed as cAMP response measured after 2 hrs incubation by cAMP Alphascreen assay; type: functional, cell-based, HEK293
Sequence of Melanocortin receptor 4 (P56450 whole entry): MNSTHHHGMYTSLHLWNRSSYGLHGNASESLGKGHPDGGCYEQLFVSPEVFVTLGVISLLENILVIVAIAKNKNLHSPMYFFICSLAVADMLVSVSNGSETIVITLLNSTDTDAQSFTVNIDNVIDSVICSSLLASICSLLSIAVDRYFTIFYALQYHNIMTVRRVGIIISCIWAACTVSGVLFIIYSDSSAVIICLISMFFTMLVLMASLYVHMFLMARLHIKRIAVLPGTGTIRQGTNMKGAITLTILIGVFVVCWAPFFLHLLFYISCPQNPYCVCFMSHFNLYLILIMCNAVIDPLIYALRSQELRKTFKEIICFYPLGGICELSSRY

Melanocortin receptor 5 = Melanocortin receptor 5 (Mus musculus, UniProt P41149); assay: Agonist activity at mouse MC5 receptor expressed in HEK-293 cells assessed as cAMP response measured after 2 hrs incubation by cAMP Alphascreen assay; type: functional, cell-based, HEK293
Sequence of Melanocortin receptor 5 (P41149 whole entry): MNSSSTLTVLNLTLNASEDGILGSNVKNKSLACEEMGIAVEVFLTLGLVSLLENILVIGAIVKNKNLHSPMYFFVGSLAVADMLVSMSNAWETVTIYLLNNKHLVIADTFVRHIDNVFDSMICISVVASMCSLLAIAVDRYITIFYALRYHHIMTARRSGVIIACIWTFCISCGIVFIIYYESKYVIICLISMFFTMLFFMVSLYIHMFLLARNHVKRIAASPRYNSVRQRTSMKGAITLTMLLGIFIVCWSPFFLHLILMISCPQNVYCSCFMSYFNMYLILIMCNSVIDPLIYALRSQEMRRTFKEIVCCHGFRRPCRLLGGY

Melanocortin receptor 3 = Melanocortin receptor 3 (Mus musculus, UniProt P33033); assay: Agonist activity at mouse MC3 receptor expressed in HEK-293 cells assessed as cAMP response measured after 2 hrs incubation by cAMP Alphascreen assay; type: functional, cell-based, HEK293
Sequence of Melanocortin receptor 3 (P33033 whole entry): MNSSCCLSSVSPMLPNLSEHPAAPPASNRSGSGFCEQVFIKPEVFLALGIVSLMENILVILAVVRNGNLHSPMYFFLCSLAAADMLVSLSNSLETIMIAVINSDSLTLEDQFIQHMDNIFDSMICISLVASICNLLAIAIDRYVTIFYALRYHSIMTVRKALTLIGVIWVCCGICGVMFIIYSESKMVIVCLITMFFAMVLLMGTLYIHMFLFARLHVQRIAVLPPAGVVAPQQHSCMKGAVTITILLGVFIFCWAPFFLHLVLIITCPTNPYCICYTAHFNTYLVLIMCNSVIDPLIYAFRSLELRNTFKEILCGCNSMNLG

[2] = molecular target: Melanocyte-stimulating hormone receptor (Mus musculus, UniProt Q01727); assay: Agonist activity at mouse MC1 receptor expressed in HEK-293 cells assessed as cAMP response measured after 2 hrs incubation by cAMP Alphascreen assay; type: functional, cell-based, HEK293
Sequence of Melanocyte-stimulating hormone receptor (Q01727 whole entry): as the sequence (Q01727 whole entry, looked up) above

Mus musculus = organism: Mus musculus; assay: Selectivity ratio for mouse MC3 receptor over mouse MC4 receptor
[3] = molecular target: Melanocortin receptor 3 (Mus musculus) (UniProt P33033); assay: Agonist activity at mouse MC3 receptor expressed in HEK-293 cells assessed as cAMP response measured at 100 uM after 2 hrs incubation by cAMP Alphascreen assay relative to control; type: functional, cell-based; details: HEK293
Sequence of Melanocortin receptor 3 (Mus musculus) (P33033 whole entry): as the sequence (P33033 whole entry) above

[4] = molecular target: Melanocortin receptor 5 (Mus musculus) (UniProt P41149); assay: Agonist activity at mouse MC5 receptor expressed in HEK-293 cells assessed as cAMP response measured at 100 uM after 2 hrs incubation by cAMP Alphascreen assay relative to control; type: functional, cell-based; details: HEK293
Sequence of Melanocortin receptor 5 (Mus musculus) (P41149 whole entry): as the sequence (P41149 whole entry) above

[5] = molecular target: Melanocortin receptor 4 (Mus musculus) (UniProt P56450); assay: Agonist activity at mouse MC4 receptor expressed in HEK-293 cells assessed as cAMP response measured at 100 uM after 2 hrs incubation by cAMP Alphascreen assay relative to control; type: functional, cell-based; details: HEK293
Sequence of Melanocortin receptor 4 (Mus musculus) (P56450 whole entry): as the sequence (P56450 whole entry) above

Row | Compound | Activity [1] [%] | EC50 (Melanocortin receptor 4) [nM] | EC50 (Melanocortin receptor 5) [nM] | EC50 (Melanocortin receptor 3) [nM] | EC50 [2] [nM] | Selectivity ratio (Mus musculus) | Activity [3] [%] | Activity [4] [%] | Activity [5] [%]
1 | CC(=O)N[C@@H](Cc1ccccc1)C(=O)N[C@@H](CCCN=C(N)N)C(=O)N[C@@H](Cc1c[nH]c2ccccc12)C(N)=O (Ac-Phe-Arg-Trp-NH2) | 60 |  |  |  |  |  |  |  | 
2 | CC(=O)N[C@@H](Cc1cnc[nH]1)C(=O)N[C@H](Cc1ccccc1)C(=O)N[C@@H](CCCN=C(N)N)C(=O)N[C@@H](Cc1c[nH]c2ccccc12)C(N)=O |  | 5.6 |  |  |  |  |  |  | 
3 | CC(=O)N[C@@H](Cc1c[nH]cn1)C(=O)N[C@@H](Cc1ccccc1)C(=O)N[C@@H](CCCN=C(N)N)C(=O)N[C@@H](Cc1c[nH]c2ccccc12)C(N)=O |  | 1210 | 70 |  |  |  |  |  | 
4 | CC(=O)N[C@H](Cc1ccccc1)C(=O)N[C@@H](CCCN=C(N)N)C(=O)N[C@@H](Cc1c[nH]c2ccccc12)C(N)=O (Ac-[dF]-Arg-Trp-NH2) |  |  |  |  | 10000 |  | 40 | 70 | 70

Other lines, results leading:

Row | Activity [1] [%] | EC50 (Melanocortin receptor 4) [nM] | EC50 (Melanocortin receptor 5) [nM] | EC50 (Melanocortin receptor 3) [nM] | EC50 [2] [nM] | Selectivity ratio (Mus musculus) | Activity [3] [%] | Activity [4] [%] | Activity [5] [%] | Compound
5 |  | > 100000 | > 100000 | > 100000 |  |  |  |  |  | CC(=O)N[C@@H](Cc1ccccc1)C(=O)N[C@@H](CCCNC(=N)N)C(=O)N[C@@H](Cc1c[nH]c2ccccc12)C(N)=O (Ac-Phe-Arg-Trp-NH2)
6 |  | 12 | 5.6 | 415 | 33 | 35 |  |  |  | CC(=O)N[C@@H](Cc1c[nH]cn1)C(=O)N[C@H](Cc1ccccc1)C(=O)N[C@@H](CCCNC(=N)N)C(=O)N[C@H](CC(N)=O)Cc1c[nH]c2ccccc12
7 |  | 70 | 73 | 854 | 37 | 12 |  |  |  | CC(=O)N[C@@H](Cc1c[nH]cn1)C(=O)N[C@H](Cc1ccccc1)C(=O)N[C@@H](CCCNC(=N)N)CC(=O)N[C@@H](Cc1c[nH]c2ccccc12)C(N)=O
8 |  | 7680 | 4810 |  | 6580 |  | 70 |  |  | CC(=O)N[C@@H](Cc1c[nH]cn1)C(=O)N[C@H](CC(=O)N[C@@H](CCCNC(=N)N)C(=O)N[C@@H](Cc1c[nH]c2ccccc12)C(N)=O)Cc1ccccc1
9 |  |  |  |  | 7030 |  | 50 | 60 | 60 | CC(=O)N[C@@H](Cc1c[nH]cn1)C(=O)N[C@@H](CC(=O)N[C@@H](CCCNC(=N)N)C(=O)N[C@@H](Cc1c[nH]c2ccccc12)C(N)=O)Cc1ccccc1
